Legend:
[1] = test system: cell free culture supernatant (fraction A) of Serratia marcescens, cyclic nucleotide phosphodiesterase activity; test: Activity assay, fraction A: cell free culture supernatant, HPLC detection of substrate and products; format: biochemical, Serratia marcescens strain DSM 30121; details: 40 μl of 100 mM substrate in 400 μl, overnight at 30° C.
Protocol: (§1) The substrates used for enzyme activity assays are dissolved in phosphate buffer pH 7.0 to the required concentration.
One single colony is subsequently used to inoculate 25 ml of LB Broth contained in a 100-ml shake-flask. This culture is then incubated at 30° C. and shaken at 200 rpm (Infors HT Shaker, Infors AG, Bottmingen, Switzerland) for another 48 hrs.
(§2) After incubation, the whole volume of the culture is centrifuged at 9000 rpm for 20 minutes at ca. 4° C. (DuPont Instruments Sorvall® RC-5B Refrigerated Superspeed Centrifuge, Digitana AG, Horgen, Switzerland; rotor SS-34).
The supernatant (fraction A) is recuperated and 360 μl are placed in an Eppendorf tube. Fourty μl of a 100 mM solution of substrate are then added to the reaction mixture and incubated overnight at 30° C.
After 5 minutes of extraction at room temperature, the tubes are centrifugated at 14 000 rpm for 5 minutes (Bench Centrifuge Biofuge 15) and the supernatant transfered to HPLC tubes for analysis.
Blanks are made with the substrate solution being replaced by an equivalent volume of phosphate buffer pH 7.0.
The activity is qualitatively determined by observing the appearance of the substrate and product(s) of the activity assay as peaks on a HPLC profile. […] A peak showing on the assay's chromatogramme at the same or at a very close retention time as that of a standard, and moreover absent from the blank, is considered to be the same compound as the standard with a minimum risk of error.
The solvent system is composed of 10 mm phosphate buffer, pH 4.0 (solvent A) and Methanol (solvent B) and two different gradients are applied depending on whether natural or modified nucleotides are used for the assay:
The HPLC profiles obtained for the activity assays are compared with profiles of standards in order to identify the peaks.

[2] = test system: Intact cells (fraction B) of Serratia marcescens; test: Activity assay, fraction B: whole-cell suspension, HPLC detection of substrate and products; format: cell-based, Serratia marcescens strain DSM 30121; details: 10 mM substrate solution, overnight at 30° C.
Protocol: as §1
Serratia marcescens strain DSM 30121 is grown for 48 hrs in Petri dishes containing Luria-Bertani [LB] Agar (1% Tryptone [Merck 07213]; 0.5% Yeast Extract [Fluka 70161]; 86 mM NaCl [Fluka 71382]; 50 mM Tris-HCl, pH 7.5 [Merck 8382]; 1.5% Bacto-Agar [Difco 0140-01]) at 30° C. (Memmert Incubator, Haska AG, Bern, Switzerland). One single colony is subsequently used to inoculate 25 ml of LB Broth contained in a 100-ml shake-flask. This culture is then incubated at 30° C. and shaken at 200 rpm (Infors HT Shaker, Infors AG, Bottmingen, Switzerland) for another 48 hrs.
as §2
The pellet is resuspended in 1 ml of distilled water and 40 μl of this whole-cell suspension (fraction B) are placed in an Eppendorf tube to which 360 μl of a 10 mM solution of the substrate are added. The incubation conditions are the same as for the supernatant fraction. […]
The activity is qualitatively determined by observing the appearance of the substrate and product(s) of the activity assay as peaks on a HPLC profile. […]

SMILES | hydrolysis / degradation of substrate [1] | degradation of added substrate [2]
O=c1[nH]cnc2c1ncn2[C@@H]1O[C@@H]2COP(=O)(O)O[C@H]2[C@H]1O [cIMP] | 85-89% | –
Nc1ccn([C@@H]2O[C@@H]3COP(=O)(O)O[C@H]3[C@H]2O)c(=O)n1 [cCMP] | ca. 10% | –
COCCO[C@@H]1[C@@H]2OP(=O)(O)OC[C@H]2O[C@H]1n1cnc2c(N)ncnc21 [2′MOE CAMP, 2′-O(2-Methoxyethyl)-adenosine 3′,5′-cyclic-phosphate] | about 50% | about 85%

From patent publication US6340754B1, “Phosphorus containing cyclic nucleotides” (priority 1998, dated 2002)
